Earlier results as cited in patent publication US20140073694A1, “CYSTAMINE ANALOGUES FOR THE TREATMENT OF PARKINSON'S DISEASE” (UNIVERSITE LAVAL, priority 2011, published 2014).

Tested on: Huntington's disease patients
Details: cited from earlier work

NCCS.O=C(O)C(O)C(O)C(=O)O (centres unmarked) [cysteamine bitartrate]
clinical efficacy: clinical efficacy was not demonstrated
tolerable dose (dose escalation 10 to 70 mg/kg per day): 20 mg/kg per day
